Assay results as given in patent US8633324B2, “Denibulin di-hydrochloride” (Medicinova, Inc., priority 2011, dated 2014).
Where a name gives a salt, the structure may show the parent alone.

How the values were obtained:
Assay type in all cases: physicochemical
[1] = Solubility of MN-029 di-hydrochloride in aqueous citric acid; details: aqueous citric acid (4.75 mg/ml), 25° C., 12 hours shaking
Text: Without being held to any particular theory, the present inventor believes that the enhanced solubility of the di-hydrochloride salt is enhanced by the lower pH of the resulting solution. That is, the reduced pH of a solution of the di-hydrochloride of MN-029 improves its aqueous solubility. To test this theory, the present inventor measured the solubility of MN-029 di-hydrochloride in aqueous citric acid and in citrate buffers at different pH values. Two samples of the di-hydrochloride salt in aqueous citric acid were prepared by adding 10 ml of an aqueous citric acid solution to 36.9 mg and 74.5 mg of MN-029 di-hydrochloride salt in a vial.
After equilibration with shaking at 25° C. for 12 hours, visual inspection of the solution in each vial indicated a clear colorless solution with no solid residue. Accordingly, the solubility MN-029 di-hydrochloride in aqueous citric acid (4.75 mg/ml) was calculated to exceed […] of the di-hydrochloride per milliliter of aqueous citric acid.

[2] = Solubility in citrate buffer at different pH values (1M sodium hydroxide added), HPLC; details: for solubility: aqueous buffer, thermodynamic from solid, read-out: Solubility (free base equivalent)
Protocol: To investigate the solubility of MN-029 di-hydrochloride in citrate buffer, the di-hydrochloride salt was added in multiple small portions to 10 milliliters of an aqueous solution of citric acid (3.87 mg/ml). When no more solid dissolved, that is, when saturation was achieved, the solution in the vial was allowed to equilibrate for approximately 24 hours with shaking at 25° C. […] The pH of the saturated solution was measured prior to filtration of undissolved solid. The filtrate obtained was equally divided into five vials.
To the filtrate in each of the vials was added different volumes of 1M sodium hydroxide so as to increase the pH of the filtrate to a predetermined pH value. It was observed that the addition of base caused solid to precipitate out of solution. The reaction mixture is allowed to equilibrate with shaking at 25° C., following which the solid residue is filtered and the filtrate obtained is analyzed for presence of dissolved compound by HPLC.

[3] = Gravimetric Vapor Sorption (GVS) hygroscopicity; details: for Weight change: GVS
Text: Moreover, neither the mono-hydrochloride salt or the di-hydrochloride salt of MN-029 show any significant change in phase as measured by XRPD analysis of samples subjected to GVS analysis (see FIG. 6).

[4] = Log P, Log Pion, Log D by potentiometric titration (Sirius GlpKa, octanol:water); details: octanol:ionic-strength adjusted water
Text: Most drugs have an ideal log P value and any deviation from this idealized value results in reduced absorption, slow transport of drug to the site of action and consequently, a decrease in biological activity. Table 8, illustrates the predicted and measured values for partition coefficients of MN-029 di-hydrochloride. The data was collected by potentiometric titration using a Sirius GlpKa instrument using three ratios of octanol:ionic-strength adjusted water to generate Log P, Log Pion and Log D values and the raw data was analyzed using Refinement Pro Software V.1.0. The predicted value of Log P was obtained using ACD V. software and Syracuse KOWWIN V.1.67 softwares.

[5] = Aqueous solubility, 24 hours equilibration in water at 25° C., HPLC, pH and XRPD of residue; details: water
Protocol: Briefly, quantitative high performance liquid chromatography (HPLC) was used to determine the aqueous solubility. X-ray powder diffraction spectrometry was also used to characterize the thermodynamic solubility of the mono-hydrochloride and di-hydrochloride salts of MN-029. After a 24 hours equilibration of each salt form in water at 25° C., the residual solid material was separated from the aqueous solution and the pH of the aqueous sample was measured. The XRPD spectrum of the solid residue obtained from the MN-029 di-hydrochloride vial indicated the solid material to be the mono-hydrochloride salt of MN-029. […] Table 4 illustrates the data from aqueous solubility studies of the mono-hydrochloride and di-hydrochloride salts of MN-029.
The suspension was equilibrated at 25° C. for 24 hours then pH was measured. The suspension was filtered and the filtrate was diluted by a factor of 101. Quantization by HPLC with a reference to a standard solution. Different volumes of the standard, diluted, and undiluted solution were injected and solubility was calculated by integration of the peak found at the same time as the principle peak in the standard solution.

[6] = Osmolality and pH of solutions in water and in 15% HPBCD
Protocol: Solutions were prepared by weighing MN-029 di-hydrochloride salt into 10-mL volumetric flasks. The drug was dissolved in water with vortexing, and samples were diluted to volume with water. Solutions of 1, 2, 4, 6 and 8 mg/mL were made according to this procedure. The samples were allowed to sit at room temperature overnight prior to pH and osmolality measurements.
All samples were clear except for the 8 mg/mL solution, which was initially clear but precipitated upon sitting overnight. As shown in Table 10 and in FIGS. 9 and 10, the pH declined in an almost linear fashion with increasing drug concentration while osmolality increased linearly with concentration up to 6 mg/mL.
The pH and osmolality were also measured for solutions of MN-029 di-hydrochloride salt in a 15% solution of hydroxypropyl-β-cyclodextrin (HPBCD). Solutions of 5, 10, 15, 20, and 30 mg/mL were prepared for analysis. The solutions were made by weighing out an appropriate amount of the compound into HPLC vials to which 1.00 mL of 15% HPBCD was added with brief vortexing. Although solutions were clear upon mixing, they were shaken overnight on an orbital shaker to assure equilibration. All solutions remained clear after overnight shaking. HPBCD at a concentration of 15% was sufficient to solubilize MN-029 di-hydrochloride up to a concentration of 30 mg/mL. As shown in Table 11 and in FIGS. 11 and 12, the pH decreased almost linearly with increasing MN-029 di-hydrochloride concentration, while the osmolality increased linearly. The dotted lines on the pH graphs (FIGS. 9 and 11) connect the data points for clarity while the dotted lines on the osmolality graphs (FIGS. 10 and 12) are linear regressions of the data which are extrapolated back to zero drug concentration.

[7] = 25° C., equilibration for 24 hours
[8] = In Deionized Water, 8.00* mg/mL (precipitated upon sitting overnight)

For `COC(=O)Nc1nc2ccc(Sc3ccc(NC(=O)[C@H](C)N)cc3)cc2[nH]1` [MN-029 di-hydrochloride, carbamic acid N-[6-[[4-[[(2S)-2-amino-1-oxopropyl]amino]phenyl]thio]-1H-benzimidazol-2-yl]-methyl ester di-hydrochloride], which “solubility in aqueous citric acid” value [1] is on record?
Its value is “exceed 7.54 mg of the di-hydrochloride per milliliter of aqueous citric acid”.

And the “fold less soluble at pH of about 5.5 than at pH of about 1.0” value [2]?
Its value is “approximately 3000 fold”.

What about the solubility ([2]; pH 0.96, 25° C.) of the same molecule?
Its solubility is 2900 µg/mL.

What about the solubility ([2]; pH 2.03, 25° C.) of the same molecule?
The solubility was 1600 µg/mL.

And the solubility ([2]; pH 3.23, 25° C.)?
Its solubility is 39 µg/mL.

And the solubility ([2]; pH 5.57, 25° C.)?
The solubility was < 1 µg/mL.

What about the Weight change ([3]; 0% RH to 40% RH) of the same molecule?
Its Weight change is “+0.56 % w/w”.

What about the Weight change ([3]; 40% RH to 90% RH, listed as A063886, di-hydrochloride) of the same molecule?
The Weight change was “Reversible uptake of +0.86% w/w”.

What about the Weight change ([3]; 40% RH to 90% RH, listed as MN029*2HCl, di-hydrochloride) of the same molecule?
Its Weight change is “+0.86 % w/w”.

And the Weight change ([3]; 90% RH to 0% RH)?
The Weight change was −1.45 % w/w.

And the “XRPD of residue after GVS” value ([3]; sample subjected to GVS)?
Its value is “No significant difference”.

What about the “Measured LogPion(cation)” value [4] of the same molecule?
The value was 0.93.

And the “Measured LogD7.4” value ([4]; pH 7.4)?
The value was 2.10.

And the logD ([4]; pH 7.4, read-out: Measured LogD7.4)?
The logD was 2.1.

What about the logP ([4]; read-out: Measured LogP) of the same molecule?
The logP was 2.64.

And the “fold more soluble in water than the mono-hydrochloride salt” value [5]?
The value was “at least 3 fold”.

And the Concentration of filtrate [5, 7]?
The Concentration of filtrate was 2.1 mg/ml of free base.

And the “pH of saturated solution” value [5, 7]?
The value was 1.03.

And the solubility ([6]; 15% HPBCD solution, aqueous with cosolvent or surfactant or cyclodextrin, thermodynamic from solid, read-out: concentration solubilized by 15% HPBCD (solutions clear after overnight shaking))?
The solubility was ≥ 30000 µg/mL.

What about the Osmolality ([6]; In 15% HPBCD, 5.35 mg/mL) of the same molecule?
Its Osmolality is 162 mOsm/kg.

What about the pH ([6]; In 15% HPBCD, 5.35 mg/mL) of the same molecule?
The pH was 2.40.

And the Osmolality ([6]; In 15% HPBCD, 10.1 mg/mL)?
The Osmolality was 182 mOsm/kg.

What about the pH ([6]; In 15% HPBCD, 10.1 mg/mL) of the same molecule?
Its pH is 2.21.

And the Osmolality ([6]; In 15% HPBCD, 15.3 mg/mL)?
Its Osmolality is 203 mOsm/kg.

What about the pH ([6]; In 15% HPBCD, 15.3 mg/mL) of the same molecule?
The pH was 2.10.

What about the Osmolality ([6]; In 15% HPBCD, 20.1 mg/mL) of the same molecule?
Its Osmolality is 221 mOsm/kg.

What about the pH ([6]; In 15% HPBCD, 20.1 mg/mL) of the same molecule?
The pH was 2.04.

And the Osmolality ([6]; In 15% HPBCD, 30.1 mg/mL)?
The Osmolality was 259 mOsm/kg.

What about the pH ([6]; In 15% HPBCD, 30.1 mg/mL) of the same molecule?
The pH was 1.89.

And the Osmolality ([6]; In Deionized Water, 1.05 mg/mL)?
Its Osmolality is 6 mOsm/kg.

And the pH ([6]; In Deionized Water, 1.05 mg/mL)?
The pH was 3.25.

What about the Osmolality ([6]; In Deionized Water, 2.04 mg/mL) of the same molecule?
Its Osmolality is 11 mOsm/kg.

What about the pH ([6]; In Deionized Water, 2.04 mg/mL) of the same molecule?
The pH was 3.03.

What about the Osmolality ([6]; In Deionized Water, 4.03 mg/mL) of the same molecule?
The Osmolality was 22 mOsm/kg.

And the pH ([6]; In Deionized Water, 4.03 mg/mL)?
Its pH is 2.82.

What about the Osmolality ([6]; In Deionized Water, 5.96 mg/mL) of the same molecule?
Its Osmolality is 32 mOsm/kg.

What about the pH ([6]; In Deionized Water, 5.96 mg/mL) of the same molecule?
The pH was 2.63.

What about the Osmolality [6, 8] of the same molecule?
Its Osmolality is 36* mOsm/kg.

And the pH [6, 8]?
Its pH is 1.90*.
